Laboratory results published in ChEMBL document CHEMBL5338791, “Discovery of Novel 1,3-Diphenylpyrazine Derivatives as Potent S-Phase Kinase-Associated Protein 2 (Skp2) Inhibitors for the Treatment of Cancer” (J Med Chem, 2023).
Activity calls are given as the source filed them. No cut-off for these calls is given here.

How the values were obtained:
PC-3 [1] = assay: Induction of cell cycle arrest in human PC-3 cells assessed as accumulation of cells at S phase at 10 uM incubated for 6 hrs by flow cytometry (reference value: 19.7 %); assay type: functional
MGC-803 [2] = assay: Antitumor activity against human MGC-803 cells xenografted in NOD-SCID mouse model assessed as tumor growth inhibition at 10 to 50 mg/kg, IG administered once every 2 days for 21 days; assay type: functional, organism-based; details: dose 10-50 mg/kg, time 21.0 day
MGC-803 [3] = assay: Antitumor activity against human MGC-803 cells overexpressing Skp2 assessed as cell growth inhibition incubated for 72 hrs by MTT assay; assay type: functional, cell-based; details: MGC-803, 72 h
MGC-803 [4] = assay: Antitumor activity against human MGC-803 cells xenografted in NOD-SCID mouse model assessed as increase in apoptosis in tumor tissue at 10 to 50 mg/kg, IG administered once every 2 days for 21 days by TUNEL staining based analysis; assay type: functional, organism-based; details: dose 10-50 mg/kg, time 21.0 day
[5] = Toxicity in NOD-SCID mouse model xenografted with human MGC-803 cells assessed as change in liver histology at 10 to 50 mg/kg, IG administered once every 2 days for 21 days by H and E staining based analysis; assay type: organism-based; details: in vivo, po, 504 h, dose 10-50 mg/kg, time 21 day
MGC-803 [6] = assay: Induction of apoptosis in human MGC-803 cells assessed as necrotic cells at 10 uM incubated for 48 hrs by annexin V-FITC/PI staining based flow cytometry (reference value: 0.89 %); assay type: functional
PC-3 [7] = assay: Induction of apoptosis in human PC-3 cells assessed as necrotic cells at 5 uM incubated for 48 hrs by annexin V-FITC/PI staining based flow cytometry (reference value: 0.14 %); assay type: functional
PC-3 [8] = assay: Induction of cell cycle arrest in human PC-3 cells assessed as accumulation of cells at S phase at 10 uM incubated for 24 hrs by flow cytometry (reference value: 19.7 %); assay type: functional
[9] = Half life in tumor of NOD-SCID mouse model xenografted with human PC-3 cells at 25 mg/kg, IG measured upto 48 hrs by LC-MS/MS analysis; assay type: ADME, organism-based, Neoplasm; details: po
[10] = Metabolic stability in human liver S9 fraction assessed as half life at 20 umol/L preincubated for 5 mins followed by NADPH addition measured upto 60 mins by LC-MS/MS analysis; assay type: ADME, subcellular; details: dose 20 µmol/L, time < 65 min
MGC-803 [11] = assay: Induction of cell cycle arrest in human MGC-803 cells assessed as accumulation of cells at G2 phase at 10 uM incubated for 48 hrs by flow cytometry (reference value: 20.64 %); assay type: functional
[12] = MRTlast in plasma of NOD-SCID mouse model xenografted with human PC-3 cells at 25 mg/kg, IG measured upto 48 hrs by LC-MS/MS analysis; assay type: ADME, organism-based; details: po
PC-3 [13] = assay: Induction of cell cycle arrest in human PC-3 cells assessed as accumulation of cells at G1 phase at 10 uM incubated for 24 hrs by flow cytometry (reference value: 56.81 %); assay type: functional
MGC-803 [14] = assay: Induction of cell cycle arrest in human MGC-803 cells assessed as accumulation of cells at G2 phase at 10 uM incubated for 24 hrs by flow cytometry (reference value: 20.64 %); assay type: functional
PC-3 [15] = assay: Induction of apoptosis in human PC-3 cells assessed as cell shrinkage incubated for 48 hrs; assay type: functional, cell-based; details: dose <= 10.0 µM
PC-3 [16] = assay: Antitumor activity against human PC-3 cells xenografted in NOD-SCID mouse model assessed as tumor suppression at 50 mg/kg, IG administered once every 2 days for 21 days relative to control; assay type: functional; details: time 21 day
[17] = target: S-phase kinase-associated protein 2/Cyclin-dependent kinases regulatory subunit 1/S-phase kinase-associated protein 1 (Homo sapiens, UniProt Q13309); assay: Inhibition of GST-tagged Skp2/Skp1 (unknown origin)/His6-tagged Cks1 (unknown origin) interaction preincubated with Skp2/Skp1 for 10 mins followed by Cks1 addition measured after 20 mins by HTRF assay; assay type: protein assay
[18] = Biodistribution in tumor of NOD-SCID mouse model xenografted with human PC-3 cells at 25 mg/kg, IG measured for 48 hrs by LC-MS/MS analysis; assay type: ADME, organism-based, Neoplasm; details: in vivo, po
PC-3 [19] = assay: Induction of cell cycle arrest in human PC-3 cells assessed as accumulation of cells at G1 phase at 10 uM incubated for 48 hrs by flow cytometry (reference value: 57.39 %); assay type: functional
MGC-803 [20] = assay: Induction of apoptosis in human MGC-803 cells assessed as late apoptotic cells at 5 uM incubated for 48 hrs by annexin V-FITC/PI staining based flow cytometry (reference value: 0.95 %); assay type: functional
[21] = Toxicity in NOD-SCID mouse model xenografted with human PC-3 cells assessed as change in spleen histology at 10 to 50 mg/kg, IG administered once every 2 days for 21 days by H and E staining based analysis; assay type: organism-based; details: in vivo, po, 504 h, dose 10-50 mg/kg, time 21 day
MGC-803 [22] = assay: Induction of apoptosis in human MGC-803 cells assessed as viable cells at 5 uM incubated for 48 hrs by annexin V-FITC/PI staining based flow cytometry (reference value: 98 %); assay type: functional; details: read-out: Activity
[23] = Toxicity in NOD-SCID mouse model xenografted with human PC-3 cells assessed as change in liver histology at 10 to 50 mg/kg, IG administered once every 2 days for 21 days by H and E staining based analysis; assay type: organism-based; details: in vivo, po, 504 h, dose 10-50 mg/kg, time 21 day
ES-2 = assay: Antitumor activity against human ES2 cells overexpressing Skp2 assessed as cell growth inhibition incubated for 72 hrs by MTT assay; assay type: functional, cell-based; details: ES-2, 72 h
MGC-803 [24] = assay: Induction of cell cycle arrest in human MGC-803 cells assessed as accumulation of cells at G1 phase at 10 uM incubated for 24 hrs by flow cytometry (reference value: 57.09 %); assay type: functional
MGC-803 [25] = assay: Induction of apoptosis in human MGC-803 cells assessed as cell shrinkage incubated for 48 hrs; assay type: functional, cell-based; details: dose <= 10.0 µM
MGC-803 [26] = assay: Induction of apoptosis in human MGC-803 cells assessed as nuclear fragmentation incubated for 48 hrs; assay type: functional, cell-based; details: dose <= 10.0 µM
MGC-803 [27] = assay: Upregulation of p27 level in human MGC-803 cells upto 10 uM by Western blot analysis; assay type: functional, cell-based; details: time 48.0 hrs, TDE = time-dependent effect
MGC-803 [28] = assay: Induction of cell cycle arrest in human MGC-803 cells assessed as accumulation of cells at G1 phase at 2.5 uM incubated for 48 hrs by flow cytometry (reference value: 54.46 %); assay type: functional
PC-3 [29] = assay: Induction of cell cycle arrest in human PC-3 cells assessed as accumulation of cells at G2 phase at 10 uM incubated for 6 hrs by flow cytometry (reference value: 19.34 %); assay type: functional
MGC-803 [30] = assay: Induction of cell cycle arrest in human MGC-803 cells assessed as accumulation of cells at G1 phase at 10 uM incubated for 6 hrs by flow cytometry (reference value: 57.09 %); assay type: functional
PC-3 [31] = assay: Induction of cell cycle arrest in human PC-3 cells assessed as accumulation of cells at G2 phase at 10 uM incubated for 48 hrs by flow cytometry (reference value: 19.34 %); assay type: functional
PC-3 [32] = assay: Upregulation of p27 level in human PC-3 cells at 10 uM incubated upto 48 hrs by Western blot analysis; assay type: functional, cell-based
PC-3 [33] = assay: Induction of cell cycle arrest in human PC-3 cells assessed as accumulation of cells at G2 phase at 5 uM incubated for 48 hrs by flow cytometry (reference value: 22.59 %); assay type: functional

S-phase kinase-associated protein 2/Cyclin-dependent kinases regulatory subunit 1/S-phase kinase-associated protein 1, sequence (P61024 whole entry): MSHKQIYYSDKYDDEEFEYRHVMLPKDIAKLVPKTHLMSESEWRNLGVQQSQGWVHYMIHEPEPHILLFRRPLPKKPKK
S-phase kinase-associated protein 2/Cyclin-dependent kinases regulatory subunit 1/S-phase kinase-associated protein 1, sequence (Q13309 whole entry): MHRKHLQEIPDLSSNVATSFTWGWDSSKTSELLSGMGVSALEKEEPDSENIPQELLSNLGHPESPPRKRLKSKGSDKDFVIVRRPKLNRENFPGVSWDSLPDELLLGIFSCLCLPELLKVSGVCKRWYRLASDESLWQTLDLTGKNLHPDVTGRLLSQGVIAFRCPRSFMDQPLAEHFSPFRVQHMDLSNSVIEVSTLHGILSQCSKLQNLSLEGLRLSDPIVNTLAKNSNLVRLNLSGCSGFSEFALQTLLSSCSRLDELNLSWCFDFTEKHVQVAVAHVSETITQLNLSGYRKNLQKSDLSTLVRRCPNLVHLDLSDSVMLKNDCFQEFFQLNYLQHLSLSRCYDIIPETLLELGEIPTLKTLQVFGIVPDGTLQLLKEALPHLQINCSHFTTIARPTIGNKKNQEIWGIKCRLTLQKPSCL
S-phase kinase-associated protein 2/Cyclin-dependent kinases regulatory subunit 1/S-phase kinase-associated protein 1, sequence (P63208 whole entry, further chain): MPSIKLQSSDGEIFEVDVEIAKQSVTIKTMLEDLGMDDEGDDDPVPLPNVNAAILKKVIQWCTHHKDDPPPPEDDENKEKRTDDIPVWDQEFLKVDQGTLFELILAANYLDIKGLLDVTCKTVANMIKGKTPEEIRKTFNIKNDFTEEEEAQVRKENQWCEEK

O=C(CCl)NC1CCN(c2cnc(-c3ccccc3)c(-c3ccccc3)n2)CC1
Activity (PC-3 [1]): 28.11%
TGI (MGC-803 [2]): Active
IC50 (MGC-803 [3]): 7 µM
Activity (MGC-803 [4]): Active
Activity [5]: Non-Toxic
Activity (MGC-803 [6]): 4.73%
Activity (PC-3 [7]): 5.15%
Activity (PC-3 [8]): 38.52%
half-life [9]: 12.6 h
half-life at 20 µM [10]: 1.08 h
Activity (MGC-803 [11]): 21.86%
MRT last at 48 h [12]: 13.4 h
Activity (PC-3 [13]): 38.62%
Activity (MGC-803 [14]): 17.72%
Activity (PC-3 [15]): Dose-Dependent Effect
Activity (PC-3 [16]): 100%
IC50 [17]: 2.8 µM
Drug uptake [18]: Active
Activity (PC-3 [19]): 39.51%
Activity (MGC-803 [20]): 12.3%
Activity [21]: Non-Toxic
viability at 5 µM (MGC-803 [22]): 82.9%
Activity [23]: Non-Toxic
IC50 (ES-2): 3.6 µM
Activity (MGC-803 [24]): 44.68%
Activity (MGC-803 [25]): Dose-Dependent Effect
Activity (MGC-803 [26]): Dose-Dependent Effect
Activity (MGC-803 [27]): Tde
Activity (MGC-803 [28]): 49.77%
Activity (PC-3 [29]): 19.87%
Activity (MGC-803 [30]): 47.84%
Activity (PC-3 [31]): 16.14%
Activity (PC-3 [32]): Active
Activity (PC-3 [33]): 16.41%
